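Briefly, cells in 96-well plates were exposed to five compound concentrations for 48 h, and endpoints were estimated by linear interpolation. TGI is the concentration that stops growth completely.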

The first assay has as its system EKVX NSCLC. As to the kind of experiment: NCI anticancer screen, dose series, 48 h.
Consider `Nc1nc2ncc(SCc3ccc(C(=O)NC(CCC(=O)O)C(=O)O)cc3)cc2c(=O)[nH]1` (stereo not given), for which the TGI was > 100 µM.

Turning to `CCOC(=O)c1cc(C2(O)CCN(Cc3ccccc3)C2=O)c(-c2cc(C)no2)[nH]1` (stereo not given), the TGI is > 100 µM.

`OCC1CCCC(n2cnc3c(=S)nc[nH]c32)O1` (stereo not given): the TGI is > 100 µM.

As to `CC1(C)CC2(C)CC1CC2O` (stereo not given), the TGI is > 100 µM.

With `COc1ccc(/C(=C/n2ccnc2)C(=O)c2ccc(OC)c(OC)c2)cc1`, the TGI was > 100 µM.

The compound `Clc1cc(N/N=C(/c2ccccc2)c2ncccn2)ncn1` gave a TGI of 93 µM.

Take `COC(=O)C1(Cc2ccccc2)Cc2cc3c(cc2C1=O)CCC3` (stereo not given): the TGI stood at 86.1 µM.

The compound `CC(C)C(Sc1nc(-c2ccccc2)c(-c2ccccc2)[nH]1)C(=O)NNC(=S)Nc1ccccc1` (stereo not given) yielded a TGI of 61.4 µM.

On to `COC(=O)C1=C(C(=O)OC)C2OC1C1C2C2(C)C(C)=C(C)C1(C)S2=O` (stereo not given), for which the TGI turned out to be 27.6 µM.

For `CCOC(=O)CCC(NC(=O)c1ccc(OCc2nc3cc(C(F)(F)F)ccc3nc2-c2ccccc2)cc1)C(=O)OCC` (stereo not given), the TGI is > 100 µM.

Take `CC12CC(c3ccccc3O1)C(C(=O)Nc1ccc(F)cc1)C(=O)N2` (stereo not given): the TGI was > 100 µM.

As for `O=c1c2c3ccccc3[nH]c2c2cccc3c2n1CCC3`, the TGI is 95.1 µM.

`c1ccc([P+](CCNCCNCC[P+](c2ccccc2)(c2ccccc2)c2ccccc2)(c2ccccc2)c2ccccc2)cc1`: the TGI was > 100 µM.

`c1ccc(C[P+]2(c3ccccc3)c3ccccc3-c3ccccc32)cc1`: the TGI was > 100 µM.

For the compound `COc1ccc2nc(-c3ccc(OCc4ccccc4)cc3)ccc2c1`, the TGI is > 100 µM.

Consider `CCOc1ccc(N/C(=C(/C(Cl)=C(/Cl)NCCN)[N+](=O)[O-])n2nnc3ccccc32)cc1`, for which the TGI was > 100 µM.

With `O=C(Cc1nc2ccc(C(=O)c3ccccc3)cc2[nH]c1=O)C(=O)Nc1ccc(Br)cc1`, the TGI was > 100 µM.

With `Cc1cc(-c2nc3ccccc3s2)ccc1NS(=O)(=O)O`, the TGI is > 100 µM.

`COc1cc(COC(=O)N[C@H](C(=O)O)C(C)(C)C)c([N+](=O)[O-])cc1OC`: the TGI was > 100 µM.

As for `Cc1c(/C=N\NC(=S)N2CCN(C(=S)N/N=C\c3c(C)n(C)n(-c4ccccc4)c3=O)CC2)c(=O)n(-c2ccccc2)n1C`, the TGI is > 100 µM.

`CCN(CC)CCn1c2cc3c(cc2c(=O)c2cccnc21)OCCO3`: the TGI was > 10 µM.

For the next assay, the system named is CCRF-CEM leukemia. As to the kind of experiment: NCI anticancer screen, dose series, 48 h.
With `COc1ccc2c(c1)c1c(n2CCN2CCOCC2)-c2ccccc2CC1`, the TGI amounted to 69.5 µM.

On to `CCOC(=O)c1cc(C2(O)CCN(Cc3ccccc3)C2=O)c(-c2cc(C)no2)[nH]1` (stereo not given), for which the TGI was > 100 µM.

In turn, `Cc1cn(C2C=CC(COP(=O)(OCC3=CC(=O)c4ccccc4C3=O)N(C)CCCCCl)O2)c(=O)[nH]c1=O` (stereo not given) had a TGI of 11.9 µM.

For `CC1(C)CC2(C)CC1CC2O` (stereo not given), the TGI was > 100 µM.

With `COc1ccc(/C(=C/n2ccnc2)C(=O)c2ccc(OC)c(OC)c2)cc1`, the TGI is > 100 µM.

`Clc1cc(N/N=C(/c2ccccc2)c2ncccn2)ncn1` yielded a TGI of 73.9 µM.

`O=C1CC2C=CC(O)C(C1)C2` (stereo not given): the TGI is > 100 µM.

The compound `COC(=O)C1(Cc2ccccc2)Cc2cc3c(cc2C1=O)CCC3` (stereo not given) gave a TGI of 52.9 µM.

On to `CC(C)C(Sc1nc(-c2ccccc2)c(-c2ccccc2)[nH]1)C(=O)NNC(=S)Nc1ccccc1` (stereo not given), for which the TGI came to 38 µM.

With `CCOC(=O)CCC(NC(=O)c1ccc(OCc2nc3cc(C(F)(F)F)ccc3nc2-c2ccccc2)cc1)C(=O)OCC` (stereo not given), the TGI is > 100 µM.

With `CC12CC(c3ccccc3O1)C(C(=O)Nc1ccc(F)cc1)C(=O)N2` (stereo not given), the TGI is > 100 µM.

On to `O=c1c2c3ccccc3[nH]c2c2cccc3c2n1CCC3`, for which the TGI is > 100 µM.

In the case of `c1ccc(C[P+]2(c3ccccc3)c3ccccc3-c3ccccc32)cc1`, the TGI is > 100 µM.

`COc1ccc2nc(-c3ccc(OCc4ccccc4)cc3)ccc2c1`: the TGI is > 100 µM.

On to `CCOc1ccc(N/C(=C(/C(Cl)=C(/Cl)NCCN)[N+](=O)[O-])n2nnc3ccccc32)cc1`, for which the TGI was > 100 µM.

With `COC1(C)CC2N(C(=O)c3ccccc3)N=C(c3ccccc3)CC2(C)O1` (stereo not given), the TGI was > 100 µM.

Regarding `O=C1CC(C(O)CO)CC(=O)N1` (stereo not given), the TGI is > 100 µM.

For `Cc1ccccc1C1OC1C(=O)c1ccccc1N` (stereo not given), the TGI was > 100 µM.

On to `Cc1cc(-c2nc3ccccc3s2)ccc1NS(=O)(=O)O`, for which the TGI is > 100 µM.

On to `COc1cc(COC(=O)N[C@H](C(=O)O)C(C)(C)C)c([N+](=O)[O-])cc1OC`, for which the TGI was > 100 µM.

For `CCN(CC)CCn1c2cc3c(cc2c(=O)c2cccnc21)OCCO3`, the TGI is > 10 µM.

With `O=C(NS(=O)(=O)Nc1ccc(Cl)cc1)OCc1ccc(Cl)cc1Cl`, the TGI was > 100 µM.

The subject of another assay is CAKI-1 renal. Kind of assay: NCI anticancer screen, dose series, 48 h.
On to `Nc1nc2ncc(SCc3ccc(C(=O)NC(CCC(=O)O)C(=O)O)cc3)cc2c(=O)[nH]1` (stereo not given), for which the TGI is > 100 µM.

Turning to `COc1ccc2c(c1)c1c(n2CCN2CCOCC2)-c2ccccc2CC1`, the TGI was > 100 µM.

In turn, `CCOC(=O)c1cc(C2(O)CCN(Cc3ccccc3)C2=O)c(-c2cc(C)no2)[nH]1` (stereo not given) showed a TGI of 74.3 µM.

`Cc1cn(C2C=CC(COP(=O)(OCC3=CC(=O)c4ccccc4C3=O)N(C)CCCCCl)O2)c(=O)[nH]c1=O` (stereo not given): the TGI came out at 25.9 µM.

`OCC1CCCC(n2cnc3c(=S)nc[nH]c32)O1` (stereo not given): the TGI was > 100 µM.

Regarding `CC1(C)CC2(C)CC1CC2O` (stereo not given), the TGI was > 100 µM.

For `COc1ccc(/C(=C/n2ccnc2)C(=O)c2ccc(OC)c(OC)c2)cc1`, the TGI is > 100 µM.

In turn, `Clc1cc(N/N=C(/c2ccccc2)c2ncccn2)ncn1` registered a TGI of 73.4 µM.

For `COC(=O)C1=C(C(=O)OC)C2OC1C1C2C2(C)C(C)=C(C)C1(C)S2=O` (stereo not given), the TGI was 27 µM.

As to `CCOC(=O)CCC(NC(=O)c1ccc(OCc2nc3cc(C(F)(F)F)ccc3nc2-c2ccccc2)cc1)C(=O)OCC` (stereo not given), the TGI is > 100 µM.

In the case of `CC12CC(c3ccccc3O1)C(C(=O)Nc1ccc(F)cc1)C(=O)N2` (stereo not given), the TGI is > 100 µM.

For `c1ccc(C[P+]2(c3ccccc3)c3ccccc3-c3ccccc32)cc1`, the TGI is > 100 µM.

`CCOc1ccc(N/C(=C(/C(Cl)=C(/Cl)NCCN)[N+](=O)[O-])n2nnc3ccccc32)cc1` had a TGI of 34.8 µM.

On to `COC1(C)CC2N(C(=O)c3ccccc3)N=C(c3ccccc3)CC2(C)O1` (stereo not given), for which the TGI was > 100 µM.

As for `O=C1CC(C(O)CO)CC(=O)N1` (stereo not given), the TGI was > 100 µM.

For the compound `O=C(Cc1nc2ccc(C(=O)c3ccccc3)cc2[nH]c1=O)C(=O)Nc1ccc(Br)cc1`, the TGI is > 100 µM.

With `Cc1ccccc1C1OC1C(=O)c1ccccc1N` (stereo not given), the TGI was > 100 µM.

`Cc1cc(-c2nc3ccccc3s2)ccc1NS(=O)(=O)O`: the TGI is > 18.3 µM.

With `Cc1c(/C=N\NC(=S)N2CCN(C(=S)N/N=C\c3c(C)n(C)n(-c4ccccc4)c3=O)CC2)c(=O)n(-c2ccccc2)n1C`, the TGI is > 100 µM.

In the case of `CCN(CC)CCn1c2cc3c(cc2c(=O)c2cccnc21)OCCO3`, the TGI was > 10 µM.

Another assay has as its system SF-295 CNS. As to the kind of experiment: NCI anticancer screen, dose series, 48 h.
For the compound `Nc1nc2ncc(SCc3ccc(C(=O)NC(CCC(=O)O)C(=O)O)cc3)cc2c(=O)[nH]1` (stereo not given), the TGI was > 100 µM.

Regarding `COc1ccc2c(c1)c1c(n2CCN2CCOCC2)-c2ccccc2CC1`, the TGI was > 100 µM.

The values above are taken from PubChem BioAssay (NCI).
